According to patent US20100179188A1, “NITROXIDE RADICAL AS TREATMENT FOR NEURODEGENERATION” (Office of Technology Transfer, NIH, priority 2007, published 2010):

Key:
L-ferritin (L-Ft) = experiment: Western blot of L-ferritin in IRP2−/− embryonic fibroblasts; format: cell-based, mouse; conditions: 0.3 and 1.0 mM, 16 h, with or without FAC
Protocol: (§1) Cells: Embryonic fibroblasts of 13-day old embryos were isolated from wild type, IRP1−/− mice and IRP2−/− mice as described in LaVaute et al. supra. Myc-tagged HEK 293 Tet-on cell line, in which IRP2 expression was inducible, was prepared and cultured as described Bourdon et al., Blood Cells Mol Dis, 31, 247-255 (2003). Erythroblasts were harvested from bone marrow and purified as described in Cooperman et al., Blood, 106, 1084-1091 (2005).
(§2) Western blotting and antibodies: Protein analysis was carried out as described in LaVaute et al., supra. Equal amounts of protein (20-40 μg/lane) were separated on 13% SDSPAGE and transferred to nitrocellulose membranes. The membrane was blocked with 5% non-fat milk, 0.1% Triton X-100 in PBS and probed at RT in the same blocking buffer. IRP1 antibody was prepared against purified hIRP1 and used at 1:5000 dilution. L-ferritin antibody was raised in rabbit from L-ferritin protein purified from mouse livers. […]
(§3) To study the effect of Tempo1 on the IRE-binding activity of IRP1, IRP2−/− embryonic fibroblasts that were maintained in culture supplemented with 0, 0.3 and 1.0 mM Tempo1, with or without ferric ammonium citrate (FAC), for 16 h. […] Quantification was performed with the IQMac (IRP1 activity) or NIH Image (protein levels) program. Error bars represent the standard deviation calculated from the results of two different sets of experiments.

IRP1 = experiment: Western blot of IRP1 protein in IRP2−/− embryonic fibroblasts; format: cell-based, mouse; conditions: 0.3 and 1.0 mM, 16 h
Protocol: as §1, §2, §3

cytosolic aconitase = molecular target: T1, cytosolic aconitase (Mus musculus, UniProt P28271); experiment: In-gel aconitase assay in mouse embryonic fibroblast lysates, cytosolic aconitase; format: cell-based
T1 construct: Embryonic fibroblasts of 13-day old embryos were isolated from wild type, IRP1−/− mice and IRP2−/− mice; endogenous in cells; host or cells: mouse embryonic fibroblasts (wild type and IRP2−/−)
T1 sequence (P28271 1-889): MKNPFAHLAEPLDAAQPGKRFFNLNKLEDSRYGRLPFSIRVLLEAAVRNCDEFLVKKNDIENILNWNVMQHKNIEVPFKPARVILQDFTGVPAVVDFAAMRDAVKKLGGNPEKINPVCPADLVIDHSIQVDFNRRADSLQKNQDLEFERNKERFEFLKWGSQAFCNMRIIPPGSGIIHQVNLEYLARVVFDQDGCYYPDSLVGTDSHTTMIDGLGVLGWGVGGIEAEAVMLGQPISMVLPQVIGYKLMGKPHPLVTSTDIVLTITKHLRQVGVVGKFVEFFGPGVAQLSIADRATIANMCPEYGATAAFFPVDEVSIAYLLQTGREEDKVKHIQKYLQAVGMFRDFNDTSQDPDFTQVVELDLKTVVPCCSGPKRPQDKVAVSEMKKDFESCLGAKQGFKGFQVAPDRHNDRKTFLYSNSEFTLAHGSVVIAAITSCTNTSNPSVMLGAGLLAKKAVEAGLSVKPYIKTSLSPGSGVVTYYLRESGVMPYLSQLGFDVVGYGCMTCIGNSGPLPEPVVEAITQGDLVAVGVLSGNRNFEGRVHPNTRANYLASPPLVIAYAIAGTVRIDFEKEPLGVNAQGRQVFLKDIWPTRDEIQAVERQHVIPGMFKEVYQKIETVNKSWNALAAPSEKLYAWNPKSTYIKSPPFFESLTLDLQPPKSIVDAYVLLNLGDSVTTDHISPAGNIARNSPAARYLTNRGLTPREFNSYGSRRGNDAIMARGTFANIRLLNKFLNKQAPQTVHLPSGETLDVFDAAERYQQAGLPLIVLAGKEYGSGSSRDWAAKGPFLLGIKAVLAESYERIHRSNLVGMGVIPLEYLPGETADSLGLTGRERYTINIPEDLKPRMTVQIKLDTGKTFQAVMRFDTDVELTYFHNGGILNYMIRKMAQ
Protocol: as §1
Aconitase assay: Aconitase activity gels for human lysates were performed as described in Tong et al., infra, and aconitase activity gels for mouse lysate were performed with the following modifications. The gel was composed of a separating gel containing 6% acrylamide, 132 mM Tris base, 66 mM borate, 3.6 mM citrate, and a stacking gel containing 4% acrylamide, 66 mM Tris base, 33 mM borate, 3.6 mM citrate. The running buffer contains 25 mM Tris pH 8.3, 96 mM glycine, and 3.6 mM citrate. Electrophoresis were carried out at 170 V at 4° C. Spectral aconitase activity was measured by following the method of Fillebeen et al., infra, using cis-aconitate as the substrate.
To confirm that nitroxide radicals activate IRP1 binding by disassembly of the iron-sulfur cluster, we performed in-gel aconitase assays to determine whether Tempo1 decreased the activity of cytosolic aconitase. […] The band that represented the cytosolic aconitase was readily identified by its absence in lysates from IRP1−/− cells. […]
To determine whether the effect of Tempo1 on IRP1 activity was kinetically consistent with oxidative disassembly of the iron sulfur cluster, the effect of Tempo1 on aconitase activity was compared to that of the iron chelator, deferiprone (DFO), which activates IRE-binding activity of IRP1 by limiting de novo synthesis and repair of the iron sulfur cluster in IRP1. […] Recovery of aconitase activity was assessed in wild type and IRP2−/− cells.

## CC1(C)CC(O)CC(C)(C)N1[O] [Tempo1]
L-ferritin (L-Ft)
  ferritin levels: decreased
IRP1
  IRP1 levels: unchanged
Cytosolic aconitase; lysates from WT and IRP2−/− embryonic fibroblasts
  activity of cytosolic aconitase: diminished
Cytosolic aconitase; mouse embryonic fibroblasts, 16 hours treatment, then fresh unsupplemented media
  time to reversal of the loss of cytosolic aconitase activity after removal: ≤ 2 h
